Legend:
α1E122Cβ2γ2 GABAR = α1E122Cβ2γ2 GABAR (Rattus norvegicus, UniProt P18508+P62813+P63138, E149C); assay: Two-electrode voltage clamp of GABA-gated current in Xenopus oocytes; type: cell-based
α1β2P206Cγ2 GABAR = α1β2P206Cγ2 GABAR (Rattus norvegicus, UniProt P18508+P62813+P63138, P230C); assay: as above; type: cell-based; conditions: 100nM DMCM, saturating
wild-type α1β2γ2 GABAR = wild-type α1β2γ2 GABAR (Rattus norvegicus, UniProt P18508+P62813+P63138); conditions: WT GABARs; DMCM; ref Boileau and Czajkowski, 1999; Hanson and Czajkowski, 2008; cited from earlier work
α1R131Cβ2γ2 GABAR = α1R131Cβ2γ2 GABAR (Rattus norvegicus, UniProt P18508+P62813+P63138, R158C); assay: Two-electrode voltage clamp of GABA-gated current in Xenopus oocytes; type: cell-based; conditions: 1μM flumazenil
Sequence of α1R131Cβ2γ2 GABAR (P62813 28-455 R158C): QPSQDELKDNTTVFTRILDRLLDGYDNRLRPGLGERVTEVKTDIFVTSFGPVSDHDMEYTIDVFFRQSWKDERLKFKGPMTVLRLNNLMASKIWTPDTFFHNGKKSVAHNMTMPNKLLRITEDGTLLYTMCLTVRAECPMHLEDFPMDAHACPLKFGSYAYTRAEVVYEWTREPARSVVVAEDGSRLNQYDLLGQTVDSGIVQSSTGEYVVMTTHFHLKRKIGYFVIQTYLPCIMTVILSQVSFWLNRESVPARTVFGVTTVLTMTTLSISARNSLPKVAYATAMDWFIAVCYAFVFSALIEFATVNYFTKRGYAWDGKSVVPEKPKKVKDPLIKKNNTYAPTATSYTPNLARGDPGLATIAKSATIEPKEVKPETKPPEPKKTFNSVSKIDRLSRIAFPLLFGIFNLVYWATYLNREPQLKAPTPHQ
Sequence of α1R131Cβ2γ2 GABAR (P63138 25-474 limits assumed): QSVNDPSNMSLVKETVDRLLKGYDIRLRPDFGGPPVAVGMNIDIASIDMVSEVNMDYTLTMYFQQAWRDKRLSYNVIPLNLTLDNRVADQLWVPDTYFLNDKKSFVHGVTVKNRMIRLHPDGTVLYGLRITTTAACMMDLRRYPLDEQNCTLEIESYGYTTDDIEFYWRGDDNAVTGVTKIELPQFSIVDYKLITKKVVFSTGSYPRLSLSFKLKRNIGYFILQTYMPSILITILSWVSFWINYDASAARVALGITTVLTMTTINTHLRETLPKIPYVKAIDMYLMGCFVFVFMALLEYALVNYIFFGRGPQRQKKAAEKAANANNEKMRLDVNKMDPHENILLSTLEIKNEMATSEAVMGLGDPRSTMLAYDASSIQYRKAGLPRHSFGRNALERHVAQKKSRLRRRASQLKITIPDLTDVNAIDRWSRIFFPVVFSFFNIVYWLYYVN
Sequence of α1R131Cβ2γ2 GABAR (P18508 39-466): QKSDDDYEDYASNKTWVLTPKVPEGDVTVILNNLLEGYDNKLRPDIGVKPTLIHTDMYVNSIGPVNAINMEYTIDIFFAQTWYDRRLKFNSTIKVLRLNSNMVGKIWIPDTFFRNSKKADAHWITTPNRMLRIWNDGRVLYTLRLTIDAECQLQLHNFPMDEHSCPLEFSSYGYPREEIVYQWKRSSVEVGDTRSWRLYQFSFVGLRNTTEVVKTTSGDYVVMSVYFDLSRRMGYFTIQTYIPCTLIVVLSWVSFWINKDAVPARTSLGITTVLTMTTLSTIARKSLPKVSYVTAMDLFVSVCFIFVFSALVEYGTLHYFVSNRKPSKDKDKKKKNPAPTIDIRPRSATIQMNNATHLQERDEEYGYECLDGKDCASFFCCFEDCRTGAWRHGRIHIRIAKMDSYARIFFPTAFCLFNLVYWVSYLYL

Sequence of α1E122Cβ2γ2 GABAR (P62813 28-455 E149C): as the sequence (P62813 28-455 R158C) above, with E122C, C131R counted along it
Sequence of α1E122Cβ2γ2 GABAR (P63138 25-474 limits assumed): as the sequence (P63138 25-474 limits assumed) above
Sequence of α1E122Cβ2γ2 GABAR (P18508 39-466): as the sequence (P18508 39-466) above
Sequence of α1β2P206Cγ2 GABAR (P62813 28-455): as the sequence (P62813 28-455 R158C) above, with C131R counted along it
Sequence of α1β2P206Cγ2 GABAR (P63138 25-474 P230C limits assumed): as the sequence (P63138 25-474 limits assumed) above, with P206C counted along it
Sequence of α1β2P206Cγ2 GABAR (P18508 39-466): as the sequence (P18508 39-466) above
Sequence of wild-type α1β2γ2 GABAR (P62813 28-455): as the sequence (P62813 28-455 R158C) above, with C131R counted along it
Sequence of wild-type α1β2γ2 GABAR (P63138 25-474 limits assumed): as the sequence (P63138 25-474 limits assumed) above
Sequence of wild-type α1β2γ2 GABAR (P18508 39-466): as the sequence (P18508 39-466) above

Compound	inhibition of IGABA (IGABA+DRUG/IGABA) (α1E122Cβ2γ2 GABAR; 100nM DMCM, saturating) [fold]	inhibition of IGABA (IGABA+DRUG/IGABA) (α1β2P206Cγ2 GABAR) [fold]	maximal attenuation of GABA current (IGABA+DRUG/IGABA) (wild-type α1β2γ2 GABAR) [fold]	effect on GABA-gated current (α1R131Cβ2γ2 GABAR)	effect on GABA-gated current (α1E122Cβ2γ2 GABAR; 1μM flumazenil)
CCc1c(C(=O)OC)ncc2[nH]c3cc(OC)c(OC)cc3c12 [DMCM, 3-carbomethoxy-4-ethyl-6,7-dimethoxy-β-carboline]	0.45	0.45	0.62	–	–
CCOC(=O)c1ncn2c1CN(C)C(=O)c1cc(F)ccc1-2 [flumazenil]	–	–	–	had no effect	had no effect

— PMC3026633 (Neuropharmacology, 2010)
